The values that follow come from paper PMC9077470 (RSC Advances, 2018).

The subject of test [1] is TNBS-induced experimental colitis. The experiment in a line: TNBS-induced colitis: disease activity index (DAI). The format is in vivo, mice. The settings on record: for DAI, compared with positive control: vs positive control (5-ASA + sodium butyrate). The protocol: Colitis was induced according to the previous study.[18,19] Briefly, after 12 h of fasting, mice were anesthetized with intraperitoneal pentobarbital sodium (35 mg kg^-1) before the induction of colitis. 0.1 mL of 50% (v/v) ethanol contained 2.5% (v/v) TNBS was instilled into the colon 3.5-4 cm from the anus by a gavage needle. The mice were kept in a head-down position for 30 s to prevent leakage of the intracolonic instillation. Mice in the control group received normal saline instead of TNBS solution, a physical mixture of 5-ASA and sodium butyrate was used as the positive control. […] The treatments were given once daily for 5 continuous days starting 24 hours after the induction of colitis. DAI is ranged from 0 to 4 and it is the sum of scores given for body weight loss, stool consistency and presence or absence of fecal blood. The fecal occult blood of mice was evaluated by the ο-tolidine method.[22] A small amount of feces samples were smeared on a white plate. 2-3 drops of ο-tolidine solution (10 g L^-1, dissolved in acetic acid) were added into samples and mixed evenly. Then 2-3 drops of 3% H2O2 solution were added into the mixture, meanwhile, start the time and observe immediately. Scored as: normal, weak positive, green to light green developing over 2 min; +, positive, greenish-blue to deep green developing within 1 min; ++, positive, blue to bluish-green developing within 5-20 s; +++, very strong positive, intense blue color developing immediately.[23]

Test [2] concerns MPO activity in colonic tissues. Kind of test: TNBS-induced colitis: MPO activity in colonic tissues. The format is in vivo, mice. To be noted: for MPO activity in colonic tissues: vs TNBS group, p < 0.01; for MPO activity, compared with positive control: vs positive control. The protocol:
Colitis was induced according to the previous study.[18,19] Briefly, after 12 h of fasting, mice were anesthetized with intraperitoneal pentobarbital sodium (35 mg kg^-1) before the induction of colitis. 0.1 mL of 50% (v/v) ethanol contained 2.5% (v/v) TNBS was instilled into the colon 3.5-4 cm from the anus by a gavage needle. The mice were kept in a head-down position for 30 s to prevent leakage of the intracolonic instillation. Mice in the control group received normal saline instead of TNBS solution, a physical mixture of 5-ASA and sodium butyrate was used as the positive control. […] The treatments were given once daily for 5 continuous days starting 24 hours after the induction of colitis. […] Samples were freeze-thawed three times, after which sonication was repeated. Homogenates were then centrifuged at 13 000 rpm for 30 min and MPO was extracted from the resulting supernatant.[25] MPO activity was measured by the assay kit according to its provider's instructions.

For `CCCC(=O)OCC(COC(=O)CCC)OC(=O)c1cc(N)ccc1O` [5-ASDB, 2-(1,3-dibutyroxypropyl)-5-aminosalicylate], in test [1], the “DAI, compared with positive control” value was “better effects than the positive control”. Besides, in test [2], the “MPO activity in colonic tissues” value is recorded as “significantly decreased” and the “MPO activity, compared with positive control” value is reported as “significantly better than the positive control”.

On to `CCCC(=O)Oc1ccc(N=Nc2ccc(OC(=O)CCC)c(C(=O)O)c2)cc1C(=O)O` [Ols-DB, 3,3′-azobis(6-hydroxybenzoicacid)dibutyrate], for which the DAI result in test [1] (TNBS colitis mice, once daily 5 days, equivalent to 100 mg kg^−1 5-ASA, course after treatment) is recorded as “most significant effects in the first 4 days”. In addition, the “DAI, compared with positive control” value in test [1] is “better effects than the positive control”. In test [2], the “MPO activity in colonic tissues” value is “significantly decreased” and the “MPO activity, compared with positive control” value is on record as “significantly better than the positive control”.

On to `CCCC(=O)OCC(COC(=O)CCC)OC(=O)c1cc(N=Nc2ccc(O)c(C(=O)OC(COC(=O)CCC)COC(=O)CCC)c2)ccc1O` [Ols-DBP], for which, in test [1], the “DAI, compared with positive control” value is on record as “better effects than the positive control”. Besides, in test [2], the “MPO activity in colonic tissues” value is on record as “significantly decreased” and the “MPO activity, compared with positive control” value is on record as “significantly better than the positive control”.
